Measured values published in ChEMBL document CHEMBL5728699, “Macrocyclic compounds for treatment of medical disorders” (2021).
pIC50: −log10 of the molar value.

target: Complement factor D (Homo sapiens, UniProt P00746); experiment: Human Factor D Assay: Human Factor D (purified from human serum, Complement Technology, Inc.) at 80 nM final concentration is incubated with test compound at various concentrations for 5 min at room temperature in 50 mM Tris, 1M NaCl, pH 7.5. A synthetic substrate Z-L-Lys-SBzl and DTNB (Ellman's reagent) are added to final concentrations of 100 µM each. Absorbance at 405 nm (A405) is recorded at 30 second intervals for 30 minutes using a microplate spectrophotometer. IC50 values are calculated by nonlinear regression of Complement Factor D reaction rates as a function of test compound concentration.
Sequence (P00746 whole entry): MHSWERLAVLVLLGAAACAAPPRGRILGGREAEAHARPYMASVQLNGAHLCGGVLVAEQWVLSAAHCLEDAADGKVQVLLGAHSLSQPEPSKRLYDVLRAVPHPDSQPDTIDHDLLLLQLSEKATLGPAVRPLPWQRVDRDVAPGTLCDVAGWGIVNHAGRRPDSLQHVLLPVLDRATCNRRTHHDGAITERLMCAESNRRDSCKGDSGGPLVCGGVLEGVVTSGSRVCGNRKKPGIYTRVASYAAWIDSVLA

| Compound | pIC50 |
| --- | --- |
| CC(=O)c1nn(CC(=O)N2[C@H]3C[C@@]4(/C=C\CCCCN(C)C(=O)Cc5ccc(Br)nc5NC3=O)C[C@@H]24)c2ccc(-c3cnc(C)nc3)cc12 | > 6.00 |
| CC(=O)c1nn2c3c(cc(-c4cnc(C)nc4)cc13)C/C=C\CCCC(=O)NC[C@@]13C[C@@H](C(=O)Nc4nc(C(F)(F)F)ccc4C)N(C(=O)C2)[C@@H]1C3 | > 6.00 |
| CC(=O)c1nn2c3c(cc(-c4cnc(C)nc4)cc13)CC/C=C\CCCC(=O)NC[C@@]13C[C@@H](C(=O)Nc4nc(Br)ccc4C)N(C(=O)C2)[C@@H]1C3 | > 6.00 |
| C=C1COCc2ccc(Br)nc2NC(=O)[C@@H]2C[C@]3(C[C@H]3N2C(=O)Cn2nc(C(C)=O)c3cc(-c4cnc(C)nc4)ncc32)Cn2cc1cn2 | > 6.00 |
| CC(=O)N[C@H]1C/C=C\COCc2ccc(Br)nc2NC(=O)[C@@H]2C[C@@]3(CNC1=O)C[C@H]3N2C(=O)Cn1nc(C(C)=O)c2cc(-c3cnc(C)nc3)ccc21 | > 6.00 |
| CC(=O)c1nn2c3c(cc(-c4cnc(C)nc4)cc13)CCCCCC/C=C\c1cn(nn1)C[C@@]13C[C@@H](C(=O)Nc4nc(Br)ccc4C)N(C(=O)C2)[C@@H]1C3 | > 6.00 |
| CC(=O)c1nn2c3c(cc(-c4cnc(C)nc4)cc13)C/C=C\CCCC(=O)NC[C@@]13C[C@@H](C(=O)Nc4nc(Br)ccc4C)N(C(=O)C2)[C@@H]1C3 | > 6.00 |
| CC(=O)c1nn(CC(=O)N2[C@H]3C[C@]4(C[C@@H]24)CN2CC(CCCOCc4ccc(Br)nc4NC3=O)C2)c2c(C)cc(-c3cnc(C)nc3)cc12 | > 6.00 |
| CC(=O)c1nn(CC(=O)N2[C@H]3C[C@]4(C[C@@H]24)CN(C)CCCC/C=C\Cc2ccc(Br)nc2NC3=O)c2c(CF)cc(-c3cnc(C)nc3)cc12 | > 6.00 |
| CC(=O)c1nn(CC(=O)N2[C@H]3C[C@]4(C[C@@H]24)CN(C)CC(O)C(O)COCc2ccc(Br)nc2NC3=O)c2cnc(-c3cnc(C)nc3)cc12 (stereo not given in full) | > 6.00 |
